Patent US9795643B2, “Oncolytic measles virus” (priority 2010, dated 2017)

System: subcutaneously grown Hep3B tumors
Test: Murine xenograft model of human HCC (Hep3B)
Type: in vivo, nude mice
Method: To test the armed vectors pc3MerV2 Id-SCD, pMerV2 P-SCD, and pc3MerV2 Id-VP22SCD in vivo, a murine xenograft model of human HCC was applied.
To compare the armed vectors, a mouse model of subcutaneously grown Hep3B tumors was chosen. This decision was based on the facts (i) that Hep3B can be efficiently infected by MeV and support MeV replication at high levels, (ii) that in Hep3B, the conversion of 5-FC into 5-FU is fast and efficient and (iii) that over an incubation of 1-4 days after addition of the prodrug to infected cells, an increasing gap between the treatment with virus alone and the combination treatment can be observed. Additionally, a mouse model of Hep3B has been described before (Blechacz B, Splinter P L, Greiner S, Myers R, Peng K W, Federspiel M J, Russell S J, LaRusso N F. Hepatology. 2006 December; 44(6):1465-77) with a high engraftment ratio (80%, personal communication with Boris Blechacz, Mayo Clinic, Rochester, Minn., USA). In contrast, this ratio is much lower in PLC/PRF/5 (60%) and in HepG2, both determined in our laboratory.
For this in vivo experiment, six week old nude mice received subcutaneous injections of 100 μl cell suspension containing 10^6 Hep3B cells in PBS. […] The tumors were very well vascularized and appeared blue through the nude skin of the mice. After the tumors had grown to a diameter of approximately 5 mm, the mice received five intratumoral injections of the respective virus (MeV Id-SCD, MeV Id-VP22SCD or MeV P-SCD) with 2*10^6 pfu per injection and one injection daily (total dose: 10^7 pfu). Control groups were treated with medium only. On the following seven days, the mice received 500 mg/kg bodyweight 5-FC in PBS intraperitoneally. Tumor volume and weight of the animals were determined three times a week.
The combinatorial treatment (MeV-SCD+5-FC) did neither lead to any visible changes in the behavior of the animals, nor did they show reactions like enhanced sensitivity to touch. The skin of the mice looked healthy, no changes in their movement or feeding behaviors were observed and their weight remained stable.

Nc1nc(=O)[nH]cc1F [5-FC, 5-fluorocytosine]
effect of administration of the prodrug alone (5-FC 500 mg/kg i.p., 7 days, no virus): no effect | day before which all mice had to be sacrificed (5-FC only group): < 50 days | median survival (virus 5 intratumoral injections 2*10^6 pfu, 5-FC 500 mg/kg i.p. for 7 days): 32 days
